Measurements as given in US7939510B2, “Di(uridine 5′-)tetraphosphate and salts thereof” (priority 1997, dated 2011).
Read-outs that look alike come from different tables or passages of the source.

Assays:
[1] = type: physicochemical
Method: The maximum solubility in water was thus determined to be ca. 900 mg/mL. […] The tetrasodium salt of P^1,P^4-di(uridine 5′-) tetraphosphate was thus determined to have an excellent solubility and stability profile suitable for pharmaceutical applications. […]

[2] = system: rabbits; test: Local ocular tolerance and subchronic ocular toxicity study in rabbits; type: in vivo; details: multiple daily administrations over six weeks
Text: (§1) A study in rabbits examined local ocular tolerance and subchronic ocular toxicity after multiple daily administrations over a six-week period.
(§2) A study in rabbits examines local ocular tolerance and subchronic ocular toxicity after multiple daily administrations over a six-week period.

[3] = Nonclinical toxicologic profile (overall conclusion from the toxicity studies)
Text: as §1, §2

[4] = system: rat; test: Single-dose acute inhalation toxicity study in rat; type: in vivo; details: rats
[5] = system: dog; test: Single-dose acute inhalation toxicity study in dog; type: in vivo; details: dogs
[6] = system: normal healthy male volunteers; type: in vivo, human
Method: Forty non-smokers and 35 smokers were evaluated in 5 dosing cohorts of 16 volunteers, comprised of 12 receiving a single aerosolized dose of P^1,P^4-di(uridine 5′-) tetraphosphate, tetrasodium salt (20-400 mg) and 4 receiving placebo (normal saline).

[7] = system: dogs; test: Single-dose acute intravenous toxicity study in dogs; type: in vivo

With “P^1,P^4-di(uridine 5′-)tetraphosphate, monolithiummonopotassiumdisodium salt” the stability profile [1] was “excellent”.

In the case of “P^1,P^4-di(uridine 5′-)tetraphosphate, monopotassiumtrilithium salt”, the stability profile [1] is reported as “excellent”, the “adverse findings in ocular toxicology studies” value ([2]; present-tense example) is reported as “No adverse findings” and the toxicology profile ([3]; present-tense example) is reported as “excellent toxicology profile with a wide safety margin”.

In the case of “P^1,P^4-di(uridine 5′-)tetraphosphate, tetralithium salt”, the stability profile [1] is reported as “excellent”, the “adverse findings in ocular toxicology studies” value ([2]; present-tense example) is reported as “No adverse findings” and the toxicology profile ([3]; present-tense example) is reported as “excellent toxicology profile with a wide safety margin”.

With “P^1,P^4-di(uridine 5′-)tetraphosphate, tetrasodium salt” the acute toxicity [4] was “low degree of acute toxicity”, the acute toxicity [5] was “low degree of acute toxicity” and the “stimulating the expectoration of sputum compared to placebo” value ([6]; conclusion) was “effective”. For the same substance, the safety and tolerability ([6]; in vivo) was “safe and well-tolerated”, the “effect to induce the expectoration of sputum” value ([6]; non-smokers) was “observed” and the “stimulation of sputum expectoration over the next hour of sputum collection” value ([6]; smokers) was “sustained”. For the same substance, the degradation [1] was “less than 1.5%”, the “maximum solubility in water” value [1] was “ca. 900 mg/mL” and the solubility profile [1] was “excellent”. The stability profile [1] was “excellent”, the “adverse findings in ocular toxicology studies” value [2] was “No adverse findings” and the acute toxicity [7] was “low degree of acute toxicity”. For the same substance, the toxicology profile [3] was “excellent toxicology profile with a wide safety margin”.

In the case of “P^1,P^4-di(uridine 5′-)tetraphosphate, tetrapotassium salt”, the stability profile [1] is reported as “excellent”, the “adverse findings in ocular toxicology studies” value ([2]; present-tense example) is reported as “No adverse findings” and the toxicology profile ([3]; present-tense example) is reported as “excellent toxicology profile with a wide safety margin”.

For “P^1,P^4-di(uridine 5′-)tetraphosphate, disodiumdipotassium salt”, the stability profile [1] was “excellent”, the “adverse findings in ocular toxicology studies” value ([2]; present-tense example) was “No adverse findings” and the toxicology profile ([3]; present-tense example) was “excellent toxicology profile with a wide safety margin”.
